The source of these data is patent US20240115574A1, “INHIBITION OF nSMase FOR THE TREATMENT OF HUMAN IMMUNODEFICIENCY VIRUS INFECTION” (The Johns Hopkins University, priority 2018, published 2024).

One test deals with nSMase2 (Homo sapiens (Human), UniProt Q9NY59). Kind of test: nSMase2 inhibition (Tables 1A, 1B). Format: biochemical.
A further test deals with H9 cells and U1 cells. Kind of test: Electron microscopy of HIV-infected H9 cells and TNF-α-stimulated U1 cells. In kind it is cell-based. Conditions: 10 μM for 6 h. How it is done: Representative electron microscope images of H9 cells (FIG. 6A) and U1 cells (FIG. 6B) treated with MS882 (31) (10 μM) for 6 h following HIV infection (H9 cells) or TNF-α stimulation (U1 cells). […] Scale bar, 1 μm;

The subject of a further test is HIV1-Ada. Kind of test: HIV-infected humanized mice (hu-NSG), viral load and cell populations. In kind it is in vivo. On the procedure: Humanization of NSG mice was determined 20 weeks following transplantation by flow cytometry (Miltenyl Biotec) using human specific antibodies directed against hCD45-APC (Leukocytes; Thermo Fisher), hCD3-PE (T cells; Biolegend), hCD14-PE/Cy7 (Macrophage; Biolegend), hCD19-BV421 (B cells; Biolegend). Percent humanization was calculated as a ratio for each of the human antibodies to a mouse specific antibody directed against mCD45-FITC (eBioscience). Mice>5% humanization (in each cell category) were included for experiments.
Reaction included a non-template control, non-enzyme control and sample was analyzed on an Applied Biosystem 7300 Real-Time PCR system (Life Technology). […] The dissociation stage was 95° C. for 15 sec, 60° C. for 1 min and 95° C. for 15 sec.
Drugs were reconstituted in 5% DMSO, 5% Tween-80 and 90% saline. Control mice injected with vehicle consisting of 5% DMSO, 5% Tween-80 in saline.

The test system of another test is HIV Rf in H9 cells. Kind of test: HIV replication in HIV-infected H9 cells, P24 ELISA of culture supernatants. Format: cell-based. Conditions: H9 cells infected with HIV, dose response. How it is done: Controls included no-treatment and vehicle. Cell viability and P24 were measured every 24 h for 4 days.
The test system of another test is ceramides. In words: Plasma ceramides in HIV-infected humanized mice. The conditions noted are these: 10 mg/Kg for 6 weeks. Format: in vivo. On the procedure: Quantifications of multiple ceramides in plasma from uninfected humanized mice, HIV-infected humanized mice administered MS882 (31) (10 mg/Kg) or vehicle for 6 weeks. Data are mean±S.D of n=4-6 per group. *=p<0.05; **=p<0.01; ***=p<0.001 compared to uninfected humanized mice #=p<0.05; ##=p<0.01 compared to HIV-infected mice administered vehicle. One-Way ANOVA with Tukey post-hoc comparisons; Experimental drugs were delivered intraperitoneally at a dose of 10 mg/kg once daily beginning 5 weeks after HIV infection for a duration of 6 weeks. Drugs were reconstituted in 5% DMSO, 5% Tween-80 and 90% saline. Control mice injected with vehicle consisting of 5% DMSO, 5% Tween-80 in saline.

Test [1] concerns HIV-1 Tat-regulated firefly luciferase reporter in TZM/Bl cells. The conditions noted are these: dose response.
In test [2] the test system is HIV-MN in primary human CD4+ cells. Kind of test: HIV replication (p24) in human primary CD4+ cells. Format: cell-based. The conditions noted are these: HIV-MN 200 ng/mL, 0.1 μM-10 μM, 12 h, 24 h, 48 h. How it is done:
(§1) Quantification of HIV replication (p24 levels) in medium (top) and cell viability (bottom) of H9 cells (FIG. 4A), U1 cells (FIG. 4B), and human primary CD4+ cells (FIG. 4C) treated with nSMase2 inhibitor, MS882 (31). […] HIV replication and cell viability were measured at 12 h, 24 h, and 48 h after treatment of MS882 (31). Data are mean±S.D of n=3 per independent experiments/condition. *=p<0.05; **=p<0.01; ***=p<0.001 compared to uninfected control (H9 cells, primary human CD4+ cells), or non-TNFα-induced control (U1 cells). #=p<0.05; ##=p<0.01; ###=p<0.001 compared to HIV-infected or TNF-α-induced cells. One-Way ANOVA with Tukey post-hoc comparisons;

Another test has as its system HIV in U1 cells. In words: HIV replication (p24) in TNF-α-stimulated U1 cells. The conditions noted are these: TNF-α 500 ng/mL, 0.1 μM-10 μM, 12 h, 24 h, 48 h. Format: cell-based. How it is done:
as §1

The mark [3] stands for this setting: nSMase2 inhibitors of formula (I), Table 1A, read-out: IC50.
The mark [4] stands for this setting: nSMase2, compounds of formula (II), Table 1B, read-out: Activity* (IC50 category).
[5] abbreviates: daily administration for 6 weeks.

Where two headings read alike, the source gives them in different places. Where only a bound is given, the exact number is not on record here.

Chain of nSMase2 (Q9NY59 whole entry, species assumed): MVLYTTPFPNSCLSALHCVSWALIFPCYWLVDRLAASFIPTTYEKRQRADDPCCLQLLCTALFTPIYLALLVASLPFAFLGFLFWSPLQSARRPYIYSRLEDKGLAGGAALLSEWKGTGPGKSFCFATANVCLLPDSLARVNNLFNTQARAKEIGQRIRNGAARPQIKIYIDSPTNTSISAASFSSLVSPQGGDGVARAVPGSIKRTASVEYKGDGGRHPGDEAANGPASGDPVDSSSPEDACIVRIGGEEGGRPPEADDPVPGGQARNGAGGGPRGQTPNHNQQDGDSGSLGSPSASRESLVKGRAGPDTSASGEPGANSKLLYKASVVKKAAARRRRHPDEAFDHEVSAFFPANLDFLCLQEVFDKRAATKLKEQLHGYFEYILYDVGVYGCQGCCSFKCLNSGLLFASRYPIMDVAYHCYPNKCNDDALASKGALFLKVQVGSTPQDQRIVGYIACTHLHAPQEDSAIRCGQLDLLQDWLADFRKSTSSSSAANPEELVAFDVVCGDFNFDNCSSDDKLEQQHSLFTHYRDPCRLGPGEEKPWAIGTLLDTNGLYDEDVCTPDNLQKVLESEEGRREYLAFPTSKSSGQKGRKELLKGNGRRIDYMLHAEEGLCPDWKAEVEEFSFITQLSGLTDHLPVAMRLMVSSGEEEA

On to `CC(=O)N[C@@H]1CCN(c2cc(Cl)nn3cc(C)nc23)C1` [9-PROV], for which the IC50 (in general, the point on the concentration scale where inhibition reaches its midpoint) at nSMase2 (setting [3]) was > 100 µM.

As for `COc1ccc(-c2c(C)nc3c(N4CC[C@@H](NC(C)=O)C4)cc(Cl)nn23)cc1` [11-PROV], the IC50 on nSMase2 (setting [3]) was > 100 µM.

As for `COc1cccc(-c2c(C)nc3c(N4CC[C@@H](NC(C)=O)C4)cc(Cl)nn23)c1` [14-PROV], the IC50 at nSMase2 (setting [3]) was > 100 µM.

Consider `CC(=O)N[C@@H]1CCN(c2ccnn3cc(C)nc23)C1` [15-PROV], for which the IC50 on nSMase2 (setting [3]) is > 10 µM.

Turning to `CC(=O)N[C@@H]1CCN(c2cc(Cl)nn3c(-c4ccc(F)cc4)c(C)nc23)C1` [18-PROV], the IC50 on nSMase2 (setting [3]) was > 100 µM.

Take `CC(=O)Nc1cccc(-c2c(C)nc3c(N4CC[C@@H](NC(C)=O)C4)cc(Cl)nn23)c1` [19-PROV]: the IC50 at nSMase2 (setting [3]) was > 100 µM.

On to `COc1cccc(-c2c(C)nc3c(N4CC[C@@H](NC(C)=O)C4)cc(C)nn23)c1` [20-PROV], for which the IC50 at nSMase2 (setting [3]) was > 1 µM.

In the case of `CC(=O)Nc1cccc(-c2c(C)nc3c(N4CC[C@@H](NC(C)=O)C4)cc(C)nn23)c1` [22-PROV], on nSMase2 (setting [3]), the IC50 was > 1 µM.

For the compound `CC(=O)N[C@@H]1CCN(c2cc(C)nn3c(I)c(C)nc23)C1` [23-PROV], at nSMase2 (setting [3]), the IC50 was > 10 µM.

On to `COc1ccc(-c2csc3c(N4CC[C@@H](NC(C)=O)C4)nc(Cl)nc23)cc1OC` [24-PROV], for which, at nSMase2 (setting [4]), the IC50 was > 100 µM.

For the compound `COc1ccc(-c2c(C)sc3c(N4CC[C@@H](NC(C)=O)C4)nc(Cl)nc23)cc1OC` [25-PROV], the IC50 at nSMase2 (setting [4]) was > 100 µM.

Consider `COc1ccc(-c2scc3c(N4CC[C@@H](NC(C)=O)C4)nc(Cl)nc23)cc1OC` [26-PROV], for which the IC50 at nSMase2 (setting [4]) is > 100 µM.

For the compound `COc1ccc(-c2csc3c(N4CC[C@@H](NC(C)=O)C4)ncnc23)cc1OC` [27-PROV], at nSMase2 (setting [4]), the IC50 is > 100 µM.

In the case of `COc1ccc(-c2c(C)sc3c(N4CC[C@@H](NC(C)=O)C4)ncnc23)cc1OC` [28-PROV], the IC50 on nSMase2 (setting [4]) was > 100 µM.

`COc1ccc(-c2c(C)sc3c(N4CC[C@@H](NC(C)=O)C4)nc(C)nc23)cc1OC` [29a-PROV]: the IC50 at nSMase2 (setting [4]) is > 100 µM.

Turning to `COc1ccc(-c2scc3c(N4CC[C@@H](NC(C)=O)C4)nc(C)nc23)cc1OC` [29b-PROV], the IC50 on nSMase2 (setting [4]) was > 100 µM.

As to `COc1ccc(-c2csc3c(N4CC[C@@H](NC(C)=O)C4)nc(C)nc23)cc1OC` [30-PROV], the IC50 on nSMase2 (setting [4]) is > 100 µM.

Take `COc1cc(N2CC[C@@H](NC(C)=O)C2)c2nc(C)c(-c3ccc(OC)c(OC)c3)n2n1` [38-PROV]: on nSMase2 (setting [3]), the IC50 is > 1 µM.

On to `CC(=O)N[C@@H]1CCN(c2cc(C)nn3c(-c4ccc5c(c4)OCO5)c(C)nc23)C1` [40-PROV], for which the IC50 on nSMase2 (setting [3]) was ≤ 1 µM.

For `CC(=O)N[C@@H]1CCN(c2cc(C)nn3c(-c4cccc(S(C)(=O)=O)c4)c(C)nc23)C1` [42-PROV], the IC50 at nSMase2 (setting [3]) is > 1 µM.

On to `CC(=O)N[C@@H]1CCN(c2cc(C)nn3c(-c4ccc(O)cc4)c(C)nc23)C1` [47-PROV], for which, at nSMase2 (setting [3]), the IC50 is ≤ 1 µM.

`CC(=O)N[C@@H]1CCN(c2cc(C)nn3c(C)c(C)nc23)C1` [48-PROV]: at nSMase2 (setting [3]), the IC50 was > 1 µM.

On to `COc1ccc(-c2c(C)nc3c(N4CC[C@@H](NC(=O)C5CCCCC5)C4)cc(C)nn23)cc1` [Entry 31], for which the “endolysosomal morphology (electron microscopy)” value in the test with H9 cells and U1 cells was “induced enlarged endolysosomal compartments engorged with EM-dense debris”. Further, the “populations of human CD14+ macrophages” value with HIV1-Ada (10 mg/kg daily I.P. for 6 weeks) is “selectively decreased populations of CD14+ macrophages”. For the same compound, the “HIV RNAs in tissues (spleen, lung, liver, brain), qRT-PCR for HIV1-p24” value in the test on HIV1-Ada (setting [5]) was “decreased”. For the same compound, the “HIV+ (p24+) macrophages (hCD14+) in spleen, lung, liver, brain” value in the test on HIV1-Ada (setting [5]) is “decreased”. Also, the “plasma HIV viral load” value with HIV1-Ada (daily intraperitoneal administration, HIV-infected humanized mice) is listed as “reduced plasma HIV viral load”. Further, the “mice with plasma HIV viral load reduced to below detectable levels” value in the test with HIV1-Ada (daily intraperitoneal administration, individual mice) is on record as 3 out of 5. The “HIV replication (P24 ELISA of culture supernatants)” value in the test on HIV Rf in H9 cells (listed as MS822 (31)) was “dose-dependently reduced HIV replication”; with HIV Rf in H9 cells (listed as MS882 (31)), “suppressed HIV-replication”. Further, the “multiple ceramides in plasma” value in the test with ceramides is recorded as “decreased elevations of multiple ceramides”. In addition, the “luciferase activity in TZM/B1 cells” value in test [1] is recorded as “reduced luciferase activity in TZM/B1 cells at the highest doses tested”. For the same compound, the “HIV replication (p24 levels in medium)” value (in test [2]; in the test on HIV in U1 cells) was “suppressed HIV-replication” in each case.
